Experimental data: US12129240B2, “Sulfonium salt, photoacid generator, curable composition and resist composition” (SAN-APRO LTD., priority 2019, dated 2024)

Test: Evaluation of solubility in solvent
Assay type: physicochemical
Details: room temperature (25° C.), highest concentration completely dissolved; for Solubility Solvent-4: propylene carbonate; for Solubility Solvent-3: γ-butyrolactone

| Compound | Solubility Solvent-4 | Solubility Solvent-3 |
| --- | --- | --- |
| Cc1ccc(C)c([S+](c2ccc3sc4ccccc4c(=O)c3c2)c2cc(C)c(Sc3ccc4sc5ccccc5c(=O)c4c3)cc2C)c1 (stereo not drawn) [Example 36, [2,5-dimethyl-4-(2-thioxanthonylthio)phenyl](2,5-dimethylphenyl) (2-thioxanthonyl)sulfonium Potassium Hexafluorophosphate] | 25 wt % | 25 wt % |
| Cc1cc(C)cc([S+](c2ccc3sc4ccccc4c(=O)c3c2)c2c(C)cc(Sc3ccc4sc5ccccc5c(=O)c4c3)cc2C)c1 (stereo not drawn) [Example 31, [2,6-dimethyl-4-(2-thioxanthonylthio)phenyl](3,5-dimethylphenyl) (2-thioxanthonyl)sulfonium Hexafluoroantimonate] | 23 wt % | 25 wt % |
| Cc1ccc(C)c([S+](c2ccc3sc4ccccc4c(=O)c3c2)c2cc(C)c(Sc3ccc4sc5ccccc5c(=O)c4c3)cc2C)c1 (stereo not drawn) [Example 39, [2,5-dimethyl-4-(2-thioxanthonylthio)phenyl](2,5-dimethylphenyl) (2-thioxanthonyl)sulfonium Hexafluoroantimonate] | 23 wt % | 29 wt % |
| Cc1cc([S+](c2ccc3sc4ccccc4c(=O)c3c2)c2cc(C(C)(C)C)ccc2C)c(C(C)(C)C)cc1Sc1ccc2sc3ccccc3c(=O)c2c1 (stereo not drawn) [Example 46, [2-tert-butyl-5-methyl-4-(2-thioxanthonylthio)phenyl](5-tert-butyl-2-methylphenyl) (2-thioxanthonyl)sulfonium tris(pentafluoroethyl) Trifluorophosphate] | 33 wt % | 49 wt % |
| Cc1ccc(C)c([S+](c2ccc3sc4ccccc4c(=O)c3c2)c2cc(C)c([S+]([O-])c3ccc4sc5ccccc5c(=O)c4c3)cc2C)c1 (stereo not drawn) [Example 50, [2,5-dimethyl-4-(2-thioxanthonylsulfinyl)phenyl](2,5-dimethylphenyl) (2-thioxanthonyl)sulfonium tris(pentafluoroethyl) Trifluorophosphate] | 30 wt % | 40 wt % |
| Cc1cc(C)cc([S+](c2ccc3sc4ccccc4c(=O)c3c2)c2c(C)cc(Sc3ccc4sc5ccccc5c(=O)c4c3)cc2C)c1 (stereo not drawn) [Example 30, [2,6-dimethyl-4-(2-thioxanthonylthio)phenyl](3,5-dimethylphenyl) (2-thioxanthonyl)sulfonium tris(pentafluoroethyl) Trifluorophosphate] | 33 wt % | 40 wt % |
| Cc1ccc(C)c([S+](c2ccc3sc4ccccc4c(=O)c3c2)c2cc(C)c(S(=O)(=O)c3ccc4sc5ccccc5c(=O)c4c3)cc2C)c1 (stereo not drawn) [Example 51, [2,5-dimethyl-4-(2-thioxanthonylsulfonyl)phenyl](2,5-dimethylphenyl) (2-thioxanthonyl)sulfonium tris(pentafluoroethyl) Trifluorophosphate] | 32 wt % | 40 wt % |
| Cc1ccc(C)c([S+](c2ccc3sc4ccccc4c(=O)c3c2)c2cc(C)c(Oc3ccc4sc5ccccc5c(=O)c4c3)cc2C)c1 (stereo not drawn) [Example 49, [2,5-dimethyl-4-(2-thioxanthonyloxy)phenyl](2,5-dimethylphenyl) (2-thioxanthonyl)sulfonium tris(pentafluoroethyl) Trifluorophosphate] | 38 wt % | 45 wt % |
| Cc1cc([S+](c2ccc3sc4ccccc4c(=O)c3c2)c2cc(C(C)(C)C)ccc2C)c(C(C)(C)C)cc1Sc1ccc2sc3ccccc3c(=O)c2c1 (stereo not drawn) [Example 44, [2-tert-butyl-5-methyl-4-(2-thioxanthonylthio)phenyl](5-tert-butyl-2-methylphenyl) (2-thioxanthonyl)sulfonium Hexafluorophosphate] | 31 wt % | 33 wt % |
| Cc1cc([S+](c2ccc3sc4ccccc4c(=O)c3c2)c2cc(C(C)(C)C)ccc2C)c(C(C)(C)C)cc1Sc1ccc2sc3ccccc3c(=O)c2c1 (stereo not drawn) [Example 47, [2-tert-butyl-5-methyl-4-(2-thioxanthonylthio)phenyl](5-tert-butyl-2-methylphenyl) (2-thioxanthonyl)sulfonium Hexafluoroantimonate] | 30 wt % | 33 wt % |

Second part, the compound after the results:

| Solubility Solvent-4 | Solubility Solvent-3 | Compound |
| --- | --- | --- |
| 3 wt % | 9 wt % | O=c1c2ccccc2sc2ccc(Sc3ccc([S+](c4ccccc4)c4ccc5sc6ccccc6c(=O)c5c4)cc3)cc12 (stereo not drawn) [Comparative Example 4, reference compound] |
| 2 wt % | 7 wt % | O=c1c2ccccc2sc2ccc(Sc3ccc([S+](c4ccccc4)c4ccc5sc6ccccc6c(=O)c5c4)cc3)cc12 (stereo not drawn) [Comparative Example 2, reference compound] |
| 33 wt % | 38 wt % | CC(C)(C)c1cccc([S+](c2ccc3sc4ccccc4c(=O)c3c2)c2ccc(Sc3ccc4sc5ccccc5c(=O)c4c3)cc2C(C)(C)C)c1 (stereo not drawn) [Example 22, [2-tert-butyl-4-(2-thioxanthonylthio)phenyl](3-tert-butylphenyl) (2-thioxanthonyl)sulfonium tris(pentafluoroethyl) Trifluorophosphate] |
| 20 wt % | 18 wt % | COc1cccc([S+](c2ccc3sc4ccccc4c(=O)c3c2)c2ccc(Sc3ccc4sc5ccccc5c(=O)c4c3)cc2OC)c1 (stereo not drawn) [Example 15, [2-methoxy-4-(2-thioxanthonylthio)phenyl](3-methoxyphenyl) (2-thioxanthonyl)sulfonium Hexafluoroantimonate] |
| 15 wt % | 15 wt % | Cc1cccc([S+](c2ccc3sc4ccccc4c(=O)c3c2)c2ccc(Sc3ccc4sc5ccccc5c(=O)c4c3)cc2C)c1 (stereo not drawn) [Example 7, [2-methyl-4-(2-thioxanthonylthio)phenyl](3-methylphenyl) (2-thioxanthonyl)sulfonium Hexafluoroantimonate] |
| 24 wt % | 25 wt % | CC(C)(C)c1cccc([S+](c2ccc3sc4ccccc4c(=O)c3c2)c2ccc(Sc3ccc4sc5ccccc5c(=O)c4c3)cc2C(C)(C)C)c1 (stereo not drawn) [Example 23, [2-tert-butyl-4-(2-thioxanthonylthio)phenyl](3-tert-butylphenyl) (2-thioxanthonyl)sulfonium Hexafluoroantimonate] |
| 27 wt % | 25 wt % | CC(C)(C)c1cccc([S+](c2ccc3sc4ccccc4c(=O)c3c2)c2ccc(Sc3ccc4sc5ccccc5c(=O)c4c3)cc2C(C)(C)C)c1 (stereo not drawn) [Example 20, [2-tert-butyl-4-(2-thioxanthonylthio)phenyl](3-tert-butylphenyl) (2-thioxanthonyl)sulfonium Hexafluorophosphate] |
| 32 wt % | 23 wt % | O=c1c2ccccc2sc2ccc(Sc3ccc([S+](c4ccccc4)c4ccc5sc6ccccc6c(=O)c5c4)cc3)cc12 (stereo not drawn) [Comparative Example 3, reference compound] |
| 21 wt % | 10 wt % | COc1cccc([S+](c2ccc3sc4ccccc4c(=O)c3c2)c2ccc(Sc3ccc4sc5ccccc5c(=O)c4c3)cc2OC)c1 (stereo not drawn) [Example 12, [2-methoxy-4-(2-thioxanthonylthio)phenyl](3-methoxyphenyl) (2-thioxanthonyl)sulfonium Hexafluorophosphate] |
| 32 wt % | 23 wt % | Cc1cccc([S+](c2ccc3sc4ccccc4c(=O)c3c2)c2ccc(Sc3ccc4sc5ccccc5c(=O)c4c3)cc2C)c1 (stereo not drawn) [Example 6, [2-methyl-4-(2-thioxanthonylthio)phenyl](3-methylphenyl) (2-thioxanthonyl)sulfonium tris(pentafluoroethyl) Trifluorophosphate] |
| 32 wt % | 31 wt % | COc1cccc([S+](c2ccc3sc4ccccc4c(=O)c3c2)c2ccc(Sc3ccc4sc5ccccc5c(=O)c4c3)cc2OC)c1 (stereo not drawn) [Example 14, [2-methoxy-4-(2-thioxanthonylthio)phenyl](3-methoxyphenyl) (2-thioxanthonyl)sulfonium tris(pentafluoroethyl) Trifluorophosphate] |
| 25 wt % | 30 wt % | Cc1cc(C)cc([S+](c2ccc3sc4ccccc4c(=O)c3c2)c2c(C)cc(Sc3ccc4sc5ccccc5c(=O)c4c3)cc2C)c1 (stereo not drawn) [Example 28, [2,6-dimethyl-4-(2-thioxanthonylthio)phenyl](3,5-dimethylphenyl) (2-thioxanthonyl)sulfonium Hexafluorophosphate] |
| 33 wt % | 40 wt % | Cc1ccc(C)c([S+](c2ccc3sc4ccccc4c(=O)c3c2)c2cc(C)c(Sc3ccc4sc5ccccc5c(=O)c4c3)cc2C)c1 (stereo not drawn) [Example 38, [2,5-dimethyl-4-(2-thioxanthonylthio)phenyl](2,5-dimethylphenyl) (2-thioxanthonyl)sulfonium tris(pentafluoroethyl) Trifluorophosphate] |
| 12 wt % | 12 wt % | Cc1cccc([S+](c2ccc3sc4ccccc4c(=O)c3c2)c2ccc(Sc3ccc4sc5ccccc5c(=O)c4c3)cc2C)c1 (stereo not drawn) [Example 4, [2-methyl-4-(2-thioxanthonylthio)phenyl](3-methylphenyl) (2-thioxanthonyl)sulfonium Hexafluorophosphate] |
